pEC50: −log10 of the molar value. In brackets after ≈: the same amount, converted by molar mass. Like-named read-outs stand apart in the source and are kept apart here. No end group written: not given here.
Assays:
[1] = system: F. novicida biofilm; assay type: cell-based, F. novicida (F. tularensis novicida)
[2] = system: A. actinomycetemcomitans Y4; details: for pEC50: 24 h
[3] = system: F. novicida; details: 24 h
[4] = system: A. actinomycetemcomitans; details: cited from earlier work
[5] = system: K12 E. coli (ATCC #25404)
[6] = system: P. aeruginosa biofilms; details: Overhage 2008; cited from earlier work
[7] = system: A. actinomycetemcomitans; experiment: microbe, parasite or virus in culture; assay type: cell-based; details: for EC50: Aggregatibacter actinomycetemcomitans
[8] = system: E. coli (ATCC 25922); details: cited from earlier work
[9] = system: P. aeruginosa; details: P. aeruginosa (ATCC 27853); cited from earlier work
[10] = read-out: EC50 uM, E. coli, 3 h incubation, CFU enumeration

With `CC[C@H](C)[C@H](NC(=O)[C@H](CCCCN)NC(=O)[C@H](CCC(=O)O)NC(=O)[C@H](CCCCN)NC(=O)[C@H](CO)NC(=O)[C@H](CCCCN)NC(=O)[C@H](CCCNC(=N)N)NC(=O)[C@H](Cc1ccccc1)NC(=O)[C@H](Cc1ccccc1)NC(=O)[C@H](CC(=O)O)NC(=O)CNC(=O)[C@H](CC(C)C)NC(=O)[C@@H](N)CC(C)C)C(=O)NCC(=O)N[C@@H](CCCCN)C(=O)N[C@@H](CCC(=O)O)C(=O)N[C@@H](Cc1ccccc1)C(=O)N[C@@H](CCCCN)C(=O)N[C@@H](CCCNC(=N)N)C(=O)N[C@H](C(=O)N[C@H](C(=O)N[C@@H](CCC(N)=O)C(=O)N[C@@H](CCCNC(=N)N)C(=O)N[C@H](C(=O)N[C@@H](CCCCN)C(=O)N[C@@H](CC(=O)O)C(=O)N[C@@H](Cc1ccccc1)C(=O)N[C@@H](CC(C)C)C(=O)N[C@@H](CCCNC(=N)N)C(=O)N[C@@H](CC(N)=O)C(=O)N[C@@H](CC(C)C)C(=O)N[C@H](C(=O)N1CCC[C@H]1C(=O)N[C@@H](CCCNC(=N)N)C(=O)N[C@H](C(=O)N[C@@H](CCC(=O)O)C(=O)N[C@@H](CO)C(=O)O)[C@@H](C)O)C(C)C)[C@@H](C)CC)C(C)C)[C@@H](C)CC` [LL-37] the “concentration with significant inhibition of biofilm formation” value [1] was ≤ 3.8 ng/mL, the inhibition of growth [1] was “no inhibition of growth” and the “EC50 ug/mL” value [2] was 6.24 µg/mL (≈ 1.39 µM). The EC50 [2] was 6.224 µg/mL, the “EC50 (μg/mL)” value [2] was 6.244 µg/mL (≈ 1.39 µM) and the pEC50 [2] was 5.86. For the same compound, the MIC [3] was “greater than 250 μg/ml”, the ED99 [4] was 8.2 µg/mL and the MBC [4] was “above 100 μg/mL”. For the same compound, the EC50 ([5]; E. coli K12) was 0.519 µg/mL, the “EC50” value ([5]; E. coli, 3 h incubation, CFU enumeration) was 0.514 µg/mL and the EC50 [5, 10] was 0.114 µM. For the same compound, the “concentration inhibiting formation of biofilms” value [6] was 0.05 µg/mL.

`CC1(C)S[C@@H]2[C@H](NC(=O)[C@H](N)c3ccc(O)cc3)C(=O)N2[C@H]1C(=O)O` [amoxicillin] gave an EC50 [7] of 29.6 µg/mL and an EC50 ([7]; read-out: EC50 in μM) of 80.9 µM.

Compound `CC1(C)S[C@@H]2[C@H](NC(=O)[C@H](N)c3ccccc3)C(=O)N2[C@H]1C(=O)O` [ampicillin] has an EC50 [7] of 75 µg/mL and an EC50 ([7]; read-out: EC50 in μM) of 215 µM.

`CC[C@H]1OC(=O)[C@H](C)[C@@H](O[C@H]2C[C@@](C)(OC)[C@@H](O)[C@H](C)O2)[C@H](C)[C@@H](O[C@@H]2O[C@H](C)C[C@H](N(C)C)[C@H]2O)[C@](C)(O)C[C@@H](C)CN(C)[C@H](C)[C@@H](O)[C@]1(C)O` [azithromycin] showed an EC50 [7] of 34.4 µg/mL and an EC50 ([7]; read-out: EC50 in μM) of 45.9 µM.

For `CCC[C@@H]1C[C@@H](C(=O)N[C@@H]([C@H]2O[C@H](SC)[C@H](O)[C@@H](O)[C@H]2O)[C@H](C)Cl)N(C)C1` [clindamycin], the EC50 [7] was > 250 µg/mL and the EC50 ([7]; read-out: EC50 in μM) was > 542 µM.

Compound `Cc1ncc([N+](=O)[O-])n1CCO` [metronidazole] has an EC50 [7] of 19.5 µg/mL and an EC50 ([7]; read-out: EC50 in μM) of 114 µM.

GGLRSLGRKILRAWKKYGPIIVPIIRIG [BMAP-28] showed a pEC50 [2] of 6.67.

In the case of “GLLSRLRDFLSDRGRRLGEKIERIGQKIKDLSEFFQS [PMAP-37]”, the MIC [8] is given as 1 µM, the pEC50 [2] is given as 5.90 and the MIC [9] is given as 4 µM.

With “GLRKRLRKFRNKIKEKLKKIGQKIQGLLPKLAPRTDY [CAP-18]” the pEC50 [2] was 5.80.

Work on KRAKKFFKKLK-NH2 [ATRA-1A] yielded an EC50 [5, 10] of 0.659 µM.

With KRFKKFFKKPK-NH2 [ATRA-1P] the EC50 [5, 10] was 4.76 µM.

“RLKELITTGGQKIGEKIRRIGQRIKDFFKNLQPREEKS [K9CATH]” gave a pEC50 [2] of 6.96.

With gentamicin the “EC50 (μg/mL)” value [7] was 1.597 µg/mL and the pEC50 ([7]; read-out: EC50) was 5.48.

In the case of “hBD-4: antimicrobial listed in Table 6, not further described (EFELDRICGYGTARCRKKCRSQEYRIGRCPNTYACCLRKWDESLLNRTKP; UniProt Q8WTQ1 23-72, looked up)”, the “EC50 (μg/mL)” value [2] was ≥ 100 µg/mL and the EC50 ([2]; read-out: EC50 in μM) was > 22.9 µM.
